Experimental data taken from patent publication US12257326B2, “TCO conjugates and methods for delivery of therapeutic agents” (THE REGENTS OF THE UNIVERSITY OF CALIFORNIA, priority 2014, dated 2025).

Tests used:
[1] = In-vivo kinetic multiple dose evaluation of fluorescence (IVIS Spectrum); parameters: species or system mice; details: 50 nmoles per tail vein injection; Tz-Me-gel group vs no gel and unmodified alginate gel; paired T-test, n=3
Method: Three mice were evaluated after each injection of 50 nmoles of TCO-R-Rhodamine through tail vein injection. The mice were treated as described above their images. […] The “released” subject received an injection in the subcutaneous back of Tz-Me-gel. The “gel control” subject received an injection in the subcutaneous back of alginate gel. The mice were evaluated with an IVIS Spectrum machine after 5-10 minutes and 110-150 minutes after each dose of fluorophore.
Compared by paired T-test (n=3).
(§1) For in-vivo experiments, 800 μl of 2.5% alginate solution were mixed with 200 μl of supersaturated […] solution (0.21 g Ca(SO4)2/ml ddH2O). The solutions were mixed for 30 s using a three-way stopcock to achieve a final alginate concentration of 2%. The mixture was immediately injected to the animal in the desired amount.

[2] = In-vivo kinetic biodistribution of fluorescence after TCO-R-Rhodamine injection; parameters: species or system mice; details: Tz-Me-Gel (released) vs negative control (no gel injection)
Method: The bar graph extrapolates the data to a presumed total amount achieved in 8 hours.
as §1
After IACUC approval, in-vivo real-time biodistribution studies of fluorescence were carried out in nu/nu mice (n=2 per condition) by injecting either nothing or a type of alginate (control vs Tz-Gel). Then subjects received a tail-vein injection of TCO-R-F or TCO-NR-F. The negative controls were: 1. No gels with TCO-R-F (Negative control, mouse 1); 2. control alginate with TCO-R-F (Gel control, mouse 4). The two experimental groups were Tz-gel and either TCO-R-F (Released protocol, mouse 2) or TCO-NR-F (Immobilized protocol, mouse 3). Fluorescence was measured with an IVIS Spectrum (Perkin Elmer, MA) and reported in radiance.

average fluorescence at 5-10 minutes vs 110-150 minutes after second, third & fourth injection [1]: statistically higher
dose reflected by the area under the curve of fluorescence, extrapolated to total amount in 8 hours [2]: almost doubled
SMILES: CN(C)c1ccc2c(-c3ccc(C(=O)NCCNC(=O)OC4/C=C/CCCCC4)cc3C(=O)O)c3ccc(=[N+](C)C)cc-3oc2c1 (centres unmarked) [TCO-R-Rhodamine, (E)-5-((2-(((cyclooct-2-cn-1-yloxy)carbonyl)amino)ethyl)carbamoyl)-2-(3-(dimethyl-Π^4-azanylidene)-6-(dimethylamino)-3H-xanthen-9-yl)benzoic acid]
